These results are taken from patent US9096515B2, “Methods of using cycloalkylmethylamine derivatives” (Reviva Pharmaceuticals, Inc., priority 2010, dated 2015).

Read-outs that look alike come from different tables or passages of the source. Where only a bound is given, the exact number is not on record here.

Data set [1] deals with human recombinant transporter protein dopamine (DAT) (Homo sapiens (Human), UniProt Q01959). Kind of data set: radioligand binding assay, dopamine transporter. The protocol: (§1) The monoamine transporters inhibitory activities of selected compounds cycloalkylmethylamine derivatives comprising Formula (I) are reported herein. The compounds were evaluated using well established radioligand binding assays protocols (Galli, A. et al., J. Exp. Biol. 1995, 198, 2197-2212; Giros, B. et al., Trends Pharmcol. Sci. 1993, 14, 43-49; Gu, H. et al., J. Biol. Chem. 1994, 269(10), 7124-7130; Shearman, L. P. et al, Am. J. Physiol., 1998, 275(6 Pt 1), C1621-1629; Wolf, W. A. et al., J. Biol. Chem. 1992, 267(29), 20820-20825). The human recombinant transporter proteins dopamine (DAT), norepinephrine (NET) and serotonin (SERT) were selected for the in vitro assays. The radioligand binding assays were carried out at 11 different test concentrations […] to 1 μM.
(§2) The assays were carried out in duplicates and the quantitative data are reported as Ki in the TABLE 1.

The target of data set [2] is human recombinant transporter protein norepinephrine (NET) (Homo sapiens (Human), UniProt P23975). Kind of data set: radioligand binding assay, norepinephrine transporter. The protocol:
as §1, §2

For data set [3], the target named is human recombinant transporter protein serotonin (SERT) (Homo sapiens (Human), UniProt P31645). Kind of data set: radioligand binding assay, serotonin transporter. The protocol: as §1, §2
For data set [4] the following is noted: active metabolites of sibutramine; background statement; cited from earlier work.
[5] abbreviates: human recombinant DAT, 11 test concentrations 0.1 nm to 1 μM, duplicates, read-out: DAT Ki.
The mark [6] stands for this setting: human recombinant NET, 11 test concentrations 0.1 nm to 1 μM, duplicates, read-out: NET Ki.
The mark [7] stands for this setting: human recombinant SERT, 11 test concentrations 0.1 nm to 1 μM, duplicates, read-out: SERT Ki.

By Ki is commonly meant the equilibrium dissociation constant of an inhibitor or competing ligand from its target.

human recombinant transporter protein norepinephrine (NET), sequence (P23975 whole entry): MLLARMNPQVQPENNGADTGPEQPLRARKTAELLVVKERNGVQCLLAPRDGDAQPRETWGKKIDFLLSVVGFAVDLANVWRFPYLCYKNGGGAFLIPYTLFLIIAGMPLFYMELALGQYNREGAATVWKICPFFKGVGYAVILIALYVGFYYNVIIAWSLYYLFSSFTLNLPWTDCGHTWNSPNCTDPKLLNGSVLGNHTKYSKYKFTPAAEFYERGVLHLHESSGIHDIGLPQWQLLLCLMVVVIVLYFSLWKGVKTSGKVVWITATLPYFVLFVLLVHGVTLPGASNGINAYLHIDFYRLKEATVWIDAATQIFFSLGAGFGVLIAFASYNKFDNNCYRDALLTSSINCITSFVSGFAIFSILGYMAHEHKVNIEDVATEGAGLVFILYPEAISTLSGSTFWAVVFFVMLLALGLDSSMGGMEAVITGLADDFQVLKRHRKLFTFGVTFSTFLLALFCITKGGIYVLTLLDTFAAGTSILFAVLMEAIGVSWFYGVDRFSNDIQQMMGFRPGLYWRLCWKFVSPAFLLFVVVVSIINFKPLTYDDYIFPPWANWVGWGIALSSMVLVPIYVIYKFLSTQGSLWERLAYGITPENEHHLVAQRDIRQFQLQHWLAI
human recombinant transporter protein dopamine (DAT), sequence (Q01959 whole entry): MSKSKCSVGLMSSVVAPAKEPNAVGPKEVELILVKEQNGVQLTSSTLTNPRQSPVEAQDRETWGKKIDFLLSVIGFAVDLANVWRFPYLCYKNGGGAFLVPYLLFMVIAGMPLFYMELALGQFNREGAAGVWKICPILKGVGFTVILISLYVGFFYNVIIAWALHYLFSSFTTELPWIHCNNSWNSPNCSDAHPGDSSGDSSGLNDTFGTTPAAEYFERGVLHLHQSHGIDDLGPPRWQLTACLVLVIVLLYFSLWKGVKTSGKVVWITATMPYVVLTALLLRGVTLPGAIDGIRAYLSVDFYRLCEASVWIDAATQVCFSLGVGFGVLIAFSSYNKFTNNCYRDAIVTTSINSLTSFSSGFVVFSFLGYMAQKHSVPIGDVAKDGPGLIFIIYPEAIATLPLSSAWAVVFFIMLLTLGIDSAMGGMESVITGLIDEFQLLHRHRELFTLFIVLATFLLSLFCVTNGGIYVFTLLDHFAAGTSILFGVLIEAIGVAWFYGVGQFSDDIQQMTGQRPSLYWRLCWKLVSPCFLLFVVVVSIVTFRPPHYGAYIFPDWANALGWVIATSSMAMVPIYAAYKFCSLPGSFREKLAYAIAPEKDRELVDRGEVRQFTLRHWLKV

Take “2-((1-(1-(3,4-Dichlorophenyl)cyclobutyl)-3-methylbutyl)amino)ethyl propionate [Compound 12q]”: the inhibition constant (Ki) in data set [1] (setting [5]) turned out to be 7.2 nM; in data set [2] (setting [6]), 38.2 nM; in data set [3] (setting [7]) it was 10.6 nM.

Take `CC(CCNCCCC(N)=O)CC1(c2ccc(Cl)c(Cl)c2)CCC1` (racemic) [33a -Racemic]: the Ki in data set [1] (setting [5]) is 1.5 nM; in data set [2] (setting [6]), 50.1 nM; in data set [3] (setting [7]), 8.1 nM.

On to `CCOc1ccc(C2(CC(C)CCNCCCC(N)=O)CCC2)cc1` (racemic) [33b -Racemic], for which the values for the Ki in data set [1] (setting [5]), in data set [2] (setting [6]) and in data set [3] (setting [7]) were 472 nM, over 10000 nM and 5.49 nM, respectively.

With `C[C@@H](CCNCCCC(N)=O)CC1(c2ccc(Cl)c(Cl)c2)CCC1` (single isomer, unassigned) [33a -(R)-Isomer], the Ki in data set [1] (setting [5]) worked out at 0.91 nM; in data set [2] (setting [6]) it was 30.3 nM; in data set [3] (setting [7]), 2.3 nM.

`CCOc1ccc(C2(C[C@@H](C)CCNCCCC(N)=O)CCC2)cc1` (single isomer, unassigned) [33b -(R)-Isomer]: the Ki in data set [1] (setting [5]) was 130 nM; in data set [2] (setting [6]), 6520 nM; in data set [3] (setting [7]), 2.79 nM.

Turning to `CCOc1ccc(C2(C[C@H](C)CCNCCCC(N)=O)CCC2)cc1` (single isomer, unassigned) [33b -(S)-Isomer], the inhibition constant (Ki) in data set [1] (setting [5]) is 4030 nM; in data set [2] (setting [6]), 1090 nM; in data set [3] (setting [7]) it was 329 nM.

In the case of `CCOc1ccc(C2(C(CC(C)C)NCCOC(=O)CC)CCC2)cc1` (centres unmarked) [Compound 12u, 2-((1-(1-(4-Ethoxyphenyl)cyclobutyl)-3-methylbutyl)amino)ethyl propionate], the Ki in data set [1] (setting [5]) turned out to be 80.4 nM; in data set [2] (setting [6]), 2340 nM; in data set [3] (setting [7]), 5.7 nM.

`CCOC(=O)NCCNC(CC(C)C)C1(c2ccc(Cl)c(Cl)c2)CCC1` (centres unmarked) [Compound 21a, Ethyl (2-((1-(1-(3,4-dichlorophenyl)cyclobutyl)-3-methylbutyl)amino)ethyl)carbamate]: the Ki in data set [1] stood at 38.4 nM; in data set [2], 13.4 nM; in data set [3] (setting [7]) it was 1 nM.

As for `CCOC(=O)NCCNC(CC(C)C)C1(c2ccc(OCC)cc2)CCC1` (centres unmarked) [Compound 21b, Ethyl (2-((1-(1-(4-ethoxyphenyl)cyclobutyl)-3-methylbutyl)amino)ethyl)carbamate], the Ki was 159 nM in data set [1], 1920 nM in data set [2] and 2 nM in data set [3].

Turning to `CCCC(=O)NCCNC(CC(C)C)C1(c2ccc(Cl)c(Cl)c2)CCC1` (centres unmarked) [Compound 31a, N-(2-((1-(1-(3,4-Dichlorophenyl)cyclobutyl)-3-methylbutyl)amino)ethyl)butyramide], the inhibition constant (Ki) in data set [1] was determined as 52.7 nM; in data set [2], 77.7 nM; in data set [3] (setting [7]), 27.8 nM.

As to `CCCC(=O)NCCNC(CC(C)C)C1(c2ccc(OCC)cc2)CCC1` (centres unmarked) [Compound 31b, N-(2-((1-(1-(4-Ethoxyphenyl)cyclobutyl)-3-methylbutyl)amino)ethyl)butyramide], the inhibition constant (Ki) is 251 nM in data set [1] (setting [5]), 4730 nM in data set [2] and 25 nM in data set [3].

On to `CNC(CC(C)C)C1(c2ccc(Cl)cc2)CCC1` (centres unmarked) [Compound M1], for which the elimination half-life in data set [4] was 14 h.

Take `CC(C)CC(N)C1(c2ccc(Cl)cc2)CCC1` (centres unmarked) [Compound M2]: in data set [4], the elimination half-life was 16 h.
